Experimental data as given in patent US20250129430A1, “HIGH ATP-AFFINITY PROTEIN AS THERAPEUTIC TARGET FOR INTRACTABLE CANCER MOLECULAR SUBTYPES AND INHIBITOR THEREOF” (VeraVerse Co., Ltd., priority 2021, published 2025).

Columns and labels:
Experiment in all cases: Cell viability drug screen, 12-point dose-response AUC
Type in all cases: cell-based, human
[1] = tested on: SNU1967; settings: SNU1967 cells; 72 hours
Summary of the method: (§1)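 Twelve half-log concentrations per compound were tested on gastric cancer cells with an EMT phenotype (5×10^3/well, dosed 24 h post-seeding). Viability after 72 h was quantified via luminescence relative to 0.5% DMSO, and repeats were averaged.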

[2] = tested on: MKN1; settings: MKN1 cells; 72 hours
Summary of the method: as §1

[3] = tested on: NCC59; settings: NCC59 cells; 72 hours
Summary of the method: as §1

[4] = tested on: SNU216; settings: SNU216 cells (non-SEM subtype); 72 hours
Summary of the method: (§2)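 Gastric cancer lines seeded 5×10^3 cells/well, dosed after 24 h with half-log 12-point compound dilutions (DMSO 0.5% control), then 72 h at 37 °C. Viability by luminescence, normalized to DMSO; AUC by trapezoidal method, averaged over repeats.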

[5] = tested on: NCI_N87; settings: NCI_N87 cells; 72 hours
Summary of the method: as §1

[6] = tested on: SNU620; settings: SNU620 cells; 72 hours
Summary of the method: as §1

[7] = tested on: MKN74; settings: MKN74 cells; 72 hours
Summary of the method: as §2

[8] = tested on: SNU484; settings: SNU484 cells (SEM subtype); 72 hours
Summary of the method: as §1

[9] = tested on: NCC20; settings: NCC20 cells; 72 hours
Summary of the method: as §1

[10] = tested on: SNU1750; settings: SNU1750 cells (SEM subtype); 72 hours
Summary of the method: as §1

[11] = tested on: YCC2; settings: YCC2 cells; 72 hours
Summary of the method: as §1

[12] = tested on: SNU1; settings: SNU1 cells; 72 hours
Summary of the method: as §1

[13] = tested on: SNU638; settings: SNU638 cells; 72 hours
Summary of the method: as §1

[14] = tested on: SNU668; settings: SNU668 cells (SEM subtype); 72 hours
Summary of the method: as §1

[15] = tested on: SNU16; settings: SNU16 cells; 72 hours
Summary of the method: as §1

[16] = tested on: MKN45; settings: MKN45 cells (non-SEM subtype); 72 hours
Summary of the method: as §2

[17] = tested on: KATO3; settings: KATO3 cells; 72 hours
Summary of the method: as §1

[18] = tested on: NCC19; settings: NCC19 cells; 72 hours
Summary of the method: as §1

[19] = tested on: YCC3; settings: YCC3 cells; 72 hours
Summary of the method: as §1

[20] = tested on: SK4; settings: SK4 cells (SEM subtype); 72 hours
Summary of the method: as §1

[21] = tested on: NCC24; settings: NCC24 cells; 72 hours
Summary of the method: as §1

[22] = tested on: SNU601; settings: SNU601 cells; 72 hours
Summary of the method: as §1

[23] = tested on: OCUM1; settings: OCUM1 cells; 72 hours
Summary of the method: as §1

[24] = tested on: SNU719; settings: SNU719 cells; 72 hours
Summary of the method: as §2

[25] = tested on: YCC11; settings: YCC11 cells (SEM subtype); 72 hours
Summary of the method: as §1

[26] = tested on: AGS; settings: AGS cells (non-SEM subtype); 72 hours
Summary of the method: as §2

[27] = tested on: MKN28; settings: MKN28 cells; 72 hours
Summary of the method: as §1

[28] = tested on: Hs746T; settings: Hs746T cells (SEM subtype); 72 hours
Summary of the method: as §1

[29] = tested on: FU97; parameters: Average Area Under the Viability Curve (AUC), AUC norm value: scale not given here; settings: FU97 cells; 72 hours
Summary of the method: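 Trapezoidal AUC of a 12-point, DMSO-normalized dose-response curve. Luminescent viability was measured after 72 h of exposure at 37° C to half-log serial dilutions (0.5% DMSO control), dosed 24 h after plating FU97 cells at 5×10^3 per well.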

Row | Compound | Average Area Under the Viability Curve (AUC), AUC norm value [1] | Average Area Under the Viability Curve (AUC), AUC norm value [2] | Average Area Under the Viability Curve (AUC), AUC norm value [3] | Average Area Under the Viability Curve (AUC), AUC norm value [4] | Average Area Under the Viability Curve (AUC), AUC norm value [5] | Average Area Under the Viability Curve (AUC), AUC norm value [6] | Average Area Under the Viability Curve (AUC), AUC norm value [7] | Average Area Under the Viability Curve (AUC), AUC norm value [8] | Average Area Under the Viability Curve (AUC), AUC norm value [9] | Average Area Under the Viability Curve (AUC), AUC norm value [10] | Average Area Under the Viability Curve (AUC), AUC norm value [11] | Average Area Under the Viability Curve (AUC), AUC norm value [12] | Average Area Under the Viability Curve (AUC), AUC norm value [13] | Average Area Under the Viability Curve (AUC), AUC norm value [14] | Average Area Under the Viability Curve (AUC), AUC norm value [15] | Average Area Under the Viability Curve (AUC), AUC norm value [16] | Average Area Under the Viability Curve (AUC), AUC norm value [17] | Average Area Under the Viability Curve (AUC), AUC norm value [18] | Average Area Under the Viability Curve (AUC), AUC norm value [19] | Average Area Under the Viability Curve (AUC), AUC norm value [20] | also measured
1 | CC[C@]1(O)C[C@@H]2CN(CCc3c([nH]c4ccccc34)[C@@](C(=O)OC)(c3cc4c(cc3OC)N(C)[C@H]3[C@@](O)(C(=O)OC)[C@H](OC(C)=O)[C@]5(CC)C=CCN6CC[C@]43[C@@H]65)C2)C1 [Vinblastine] | −0.9411 | −0.9285 | 2.833 | 2.539 | −0.1721 | −0.4909 | 0.6639 | −1.194 | −1.614 | 0.6497 | 2.06 | −0.3949 | 0.2652 | −1.037 | −1.3 | 1.844 | 4.096 | 2.905 | 4.54 | −1.0813 | Average Area Under the Viability Curve (AUC), AUC norm value [21]: −0.9438; Average Area Under the Viability Curve (AUC), AUC norm value [22]: 0; Average Area Under the Viability Curve (AUC), AUC norm value [23]: 2.514; Average Area Under the Viability Curve (AUC), AUC norm value [24]: 4.162; Average Area Under the Viability Curve (AUC), AUC norm value [25]: −0.6159; Average Area Under the Viability Curve (AUC), AUC norm value [26]: −1.129; Average Area Under the Viability Curve (AUC), AUC norm value [27]: −0.818; Average Area Under the Viability Curve (AUC), AUC norm value [28]: 1.1779; Average Area Under the Viability Curve (AUC), AUC norm value [29]: 0.3772
2 | CC[C@]1(O)C[C@H]2CN(CCc3c([nH]c4ccccc34)[C@@](C(=O)OC)(c3cc4c(cc3OC)N(C=O)[C@H]3[C@@](O)(C(=O)OC)[C@H](OC(C)=O)[C@]5(CC)C=CCN6CC[C@]43[C@@H]65)C2)C1 [Vincristine] | −1.3653 | −1.53 | 3.847 | 1.755 | 1.615 | −0.3792 | 0.209 | −1.965 | −1.434 | 0 | 2.298 | −0.5253 | 0.1348 | −1.315 | −1.522 | 2.226 | 4.8981 | 5.039 | 4.6576 | −1.283 | Average Area Under the Viability Curve (AUC), AUC norm value [21]: −3.156; Average Area Under the Viability Curve (AUC), AUC norm value [22]: 0.9381; Average Area Under the Viability Curve (AUC), AUC norm value [23]: 0.6548; Average Area Under the Viability Curve (AUC), AUC norm value [24]: 5.036; Average Area Under the Viability Curve (AUC), AUC norm value [25]: −1.42; Average Area Under the Viability Curve (AUC), AUC norm value [26]: −1.75; Average Area Under the Viability Curve (AUC), AUC norm value [27]: −0.493; Average Area Under the Viability Curve (AUC), AUC norm value [28]: 1.044; Average Area Under the Viability Curve (AUC), AUC norm value [29]: −1.115
